Tested on: SWISS mouse
Test: convulsive crises induced by intraperitoneal pentylenetetrazole in the SWISS mouse
Assay type: in vivo
Details: given after pentylenetetrazole about 85 mg/kg i.p.
Experimental: During the first stages of the preparation and development of epileptic drugs it is necessary to generate experimental convulsive crises in an animal. The experimental convulsive crises make it possible to identify anticonvulsants, the anti-epileptic properties of which will be subsequently verified.
That is the reason why convulsive crises are induced in the SWISS mouse by the intraperitoneal injection of pentylenetetrazole at a dose of about 85 mg/kg.
Pentylenetetrazole is a bulbar excitant which, at this dose, causes convulsive crises in the mouse and the rabbit in a classical fashion with several well-characterized stages.
The subsequent intraperitoneal administration of the substance of formula I according to the invention brought about a suppression of these crises under the following conditions:
The subsequent intraperitoneal administration of N-γ-D-glutamyl-D-aspartic was also carried out and brought about the suppression of crises under the following conditions: […]

[1] = dose 285 nmol/kg intraperitoneal

Structure (SMILES)	suppression of crises, % of the animals (dose 71 nmol/kg intraperitoneal)	suppression of crises, % of the animals [1]	suppression of crises, % of the animals (dose 142.5 nmol/kg intraperitoneal)	suppression of crises, % of the animals (dose 570 nmol/kg intraperitoneal)
N[C@H](CCC(=O)N[C@H](CC(=O)O)C(=O)O)C(=O)O [N-γ-D-glutamyl-D-aspartic, N-γ-D-glutamyl-D-aspartic acid]	40%	60%	–	–
N[C@@H](CCC(=O)N[C@@H](CC(=O)O)C(=O)O)C(=O)O [formula I, N-γ-L-glutamyl-L-aspartate]	–	50%	50%	70%
